Numbered stars: 1 amine (or outer) side, 2 acyl side, 3 side chain; on linkers, the order of the positions; unused ones are H or OH. Bridge positions count the residues as written; N and C are the ends. Square brackets hold non-standard residues; d marks the D form. Side chains are listed from the residue outwards. Peptide text beside a SMILES is read from it. * marks the point of attachment. C18 diacid = O=C(O)CCCCCCCCCCCCCCCCC(=O)*; γGlu = O=C(O)[C@H](CCC(=O)[*:2])N[*:1]; αMeF = C[C@](N)(Cc1ccccc1)C(=O)O; Aib = CC(C)(N)C(=O)O
Experiments:
[1] = target: T1, human amylin receptor (calcitonin receptor co-expressed with receptor activity modifying protein, RAMP3) (hAMYR3) (Homo sapiens, UniProt O60896+P30988); experiment: cAMP production in 1321N1 cells with stable recombinant expression of human amylin receptor (hAMYR3); format: cell-based; details: for Ratio (selectivity hAMYR vs hCTR, ratio of EC50 values at the two receptors): EC50 hCTR / EC50 hAMYR3; for EC50: cAMP, 1321N1 cells, assay buffer with 0.1% BSA, read-out: EC50 (pM) hAMYR3
T1 construct: expressed in transfected cells
T1 sequence (P30988 25-474): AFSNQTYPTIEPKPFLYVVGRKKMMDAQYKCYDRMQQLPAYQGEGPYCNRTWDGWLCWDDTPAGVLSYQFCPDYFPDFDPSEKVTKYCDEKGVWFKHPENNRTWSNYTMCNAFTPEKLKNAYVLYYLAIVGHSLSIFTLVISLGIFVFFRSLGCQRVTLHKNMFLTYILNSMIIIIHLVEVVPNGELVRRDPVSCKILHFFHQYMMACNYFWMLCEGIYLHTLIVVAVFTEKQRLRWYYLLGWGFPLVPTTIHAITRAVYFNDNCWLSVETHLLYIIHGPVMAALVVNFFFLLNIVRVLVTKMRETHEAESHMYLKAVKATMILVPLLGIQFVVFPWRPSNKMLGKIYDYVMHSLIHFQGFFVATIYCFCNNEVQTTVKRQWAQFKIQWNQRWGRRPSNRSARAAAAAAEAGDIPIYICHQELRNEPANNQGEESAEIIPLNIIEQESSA
T1 sequence (O60896 24-148 partner): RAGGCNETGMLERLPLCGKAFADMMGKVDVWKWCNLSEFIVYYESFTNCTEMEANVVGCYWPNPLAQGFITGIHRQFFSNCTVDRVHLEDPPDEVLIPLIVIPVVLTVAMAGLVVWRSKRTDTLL
Method in brief: (§1)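 EC50 values come from 4-parameter logistic fits of HTRF cAMP signal, normalised to maximal calcitonin or amylin effect. Peptides were tested in duplicate for 30 min at RT in IBMX-containing (0.5 mM) BSA/HEPES buffer pH 7.4 on stable 1321N1 (human CTR, AMYR3) or HEK (rat CTR, AMYR3) lines.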

[2] = target: T2, rat amylin receptor (calcitonin receptor co-expressed with receptor activity modifying protein, RAMP3) (Rat AMYR3) (Rattus norvegicus, UniProt P32214+Q9JJ73); experiment: cAMP production in HEK cells with stable recombinant expression of rat amylin receptor (Rat AMYR3); format: cell-based; details: assay buffer with 0.1% BSA
T2 construct: expressed in transfected cells
T2 sequence (P32214 25-516): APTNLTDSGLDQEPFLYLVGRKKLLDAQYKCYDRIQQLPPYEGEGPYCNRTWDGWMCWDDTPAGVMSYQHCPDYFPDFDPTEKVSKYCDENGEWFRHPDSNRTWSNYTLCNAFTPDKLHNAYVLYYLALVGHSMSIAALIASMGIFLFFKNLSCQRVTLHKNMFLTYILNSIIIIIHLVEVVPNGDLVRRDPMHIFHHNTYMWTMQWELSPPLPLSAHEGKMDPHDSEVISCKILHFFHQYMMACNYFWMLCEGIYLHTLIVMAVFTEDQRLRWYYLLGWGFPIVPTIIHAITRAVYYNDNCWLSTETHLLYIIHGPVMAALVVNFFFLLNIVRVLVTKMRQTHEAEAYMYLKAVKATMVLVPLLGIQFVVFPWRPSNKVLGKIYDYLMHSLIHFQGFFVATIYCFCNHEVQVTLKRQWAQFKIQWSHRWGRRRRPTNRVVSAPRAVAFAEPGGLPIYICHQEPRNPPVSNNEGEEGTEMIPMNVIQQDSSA
T2 sequence (Q9JJ73 23-147 partner): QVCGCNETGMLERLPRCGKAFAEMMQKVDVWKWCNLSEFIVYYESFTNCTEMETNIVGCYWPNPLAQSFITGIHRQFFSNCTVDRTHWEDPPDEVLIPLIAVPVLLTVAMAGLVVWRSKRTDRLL
Method in brief: as §1

lean rats = experiment: Rat acute food intake study; format: in vivo; details: lean male Sprague Dawley rats, 20 nmol/kg subcutaneously
Method in brief: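 Male Sprague Dawley rats (n=7/group), fasted 6 h, received 20 nmol/kg test compound or 60 nmol/kg pramlintide subcutaneously 30 min before food return at dark onset. Food intake recorded automatically in home cages over 3 days, binned hourly and analysed as cumulative dark-period intake; body weight taken daily.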

Ratio (selectivity hAMYR vs hCTR, ratio of EC50 values at the two receptors) [1]	EC50 [1]	EC50 [2]	Structure (SMILES)	Cummulative food intake (% vehicle treated intake) At 12 h (lean rats)	Cummulative food intake (% vehicle treated intake) At 24 h (lean rats)	Cummulative food intake (% vehicle treated intake) At 48 h (lean rats)
15	127 pM	17.7 pM	CC[C@H](C)[C@H](NC(=O)[C@@H]1CCCN1C(=O)CNC(=O)[C@](C)(Cc1ccccc1)NC(=O)[C@H](CC(N)=O)NC(=O)[C@H](CC(N)=O)NC(=O)[C@H](CO)NC(=O)[C@H](CO)NC(=O)[C@H](Cc1c[nH]cn1)NC(=O)[C@@H](NC(=O)[C@H](CC(C)C)NC(=O)[C@H](Cc1ccccc1)NC(=O)[C@H](CC(N)=O)NC(=O)[C@H](C)NC(=O)[C@H](CC(C)C)NC(=O)[C@H](CCCNC(=N)N)NC(=O)[C@H](CCC(N)=O)NC(=O)[C@@H](NC(=O)[C@H](C)NC(=O)[C@@H]1CSSC[C@H](NC(=O)[C@@H](N)CCCCNC(=O)CC[C@H](NC(=O)CC[C@H](NC(=O)CCCCCCCCCCCCCCCCC(=O)O)C(=O)O)C(=O)O)C(=O)N[C@@H](CC(N)=O)C(=O)N[C@@H]([C@@H](C)O)C(=O)N[C@@H](C)C(=O)N[C@@H]([C@@H](C)O)C(=O)N1)[C@@H](C)O)C(C)C)C(=O)N[C@@H](CC(C)C)C(=O)N1CCC[C@H]1C(=O)N1CCC[C@H]1C(=O)N[C@H](C(=O)N[C@@H](CCCNC(=N)N)C(=O)N[C@H](C(=O)NCC(=O)N[C@@H](CO)C(=O)N[C@@H](CC(N)=O)C(=O)N[C@H](C(=O)N[C@@H](Cc1ccc(O)cc1)C(N)=O)[C@@H](C)O)C(C)C)[C@@H](C)O [Peptide 24, K(γE-γE-C18diacid)[CNTATC]ATQRLANFLVHSSNN(αMePhe)GPILPPTRVGSNTY-amide] (H-K([γGlu-γGlu-C18 diacid])CNTATCATQRLANFLVHSSNN[αMeF]GPILPPTRVGSNTY-NH2; disulfide 2-7; N-terminus assumed)	18.7 % vehicle treated intake	19.4 % vehicle treated intake	40.6 % vehicle treated intake
15	228 pM	12 pM	CC[C@H](C)[C@H](NC(=O)[C@@H]1CCCN1C(=O)CNC(=O)[C@H](Cc1ccccc1)NC(=O)[C@H](CC(N)=O)NC(=O)C(C)(C)NC(=O)[C@H](CO)NC(=O)[C@H](CO)NC(=O)[C@H](Cc1c[nH]cn1)NC(=O)[C@@H](NC(=O)[C@H](CC(C)C)NC(=O)[C@H](Cc1ccccc1)NC(=O)[C@H](CC(N)=O)NC(=O)[C@H](C)NC(=O)[C@H](CC(C)C)NC(=O)[C@H](CCCNC(=N)N)NC(=O)[C@H](CCC(N)=O)NC(=O)[C@@H](NC(=O)[C@H](C)NC(=O)[C@@H]1CSSC[C@H](NC(=O)[C@H](CCCCN)NC(=O)[C@@H](N)CCCCNC(=O)CC[C@H](NC(=O)CCCCCCCCCCCCCCCCC(=O)O)C(=O)O)C(=O)N[C@@H](CC(N)=O)C(=O)N[C@@H]([C@@H](C)O)C(=O)N[C@@H](C)C(=O)N[C@@H]([C@@H](C)O)C(=O)N1)[C@@H](C)O)C(C)C)C(=O)N[C@@H](CC(C)C)C(=O)N1CCC[C@H]1C(=O)N1CCC[C@H]1C(=O)N[C@H](C(=O)N[C@@H](Cc1c[nH]cn1)C(=O)N[C@H](C(=O)NCC(=O)N[C@@H](CO)C(=O)N[C@@H](CC(N)=O)C(=O)N[C@H](C(=O)N[C@@H](Cc1ccc(O)cc1)C(N)=O)[C@@H](C)O)C(C)C)[C@@H](C)O [Peptide 40, K(γE-C18diacid)K[CNTATC]ATQRLANFLVHSS(Aib)NFGPILPPTHVGSNTY-amide] (H-K([γGlu-C18 diacid])KCNTATCATQRLANFLVHSS[Aib]NFGPILPPTHVGSNTY-NH2; disulfide 3-8)	60.7 % vehicle treated intake	51.8 % vehicle treated intake	72.4 % vehicle treated intake
22	284 pM	18.5 pM	CC[C@H](C)[C@H](NC(=O)[C@@H]1CCCN1C(=O)CNC(=O)[C@H](Cc1ccccc1)NC(=O)[C@H](CC(N)=O)NC(=O)C(C)(C)NC(=O)[C@H](CO)NC(=O)[C@H](CO)NC(=O)[C@H](Cc1c[nH]cn1)NC(=O)[C@H](CCCNC(=N)N)NC(=O)[C@H](CC(C)C)NC(=O)[C@H](Cc1ccccc1)NC(=O)[C@H](CC(N)=O)NC(=O)[C@H](C)NC(=O)[C@H](CC(C)C)NC(=O)[C@H](CCCNC(=N)N)NC(=O)[C@H](CCC(N)=O)NC(=O)[C@@H](NC(=O)[C@H](C)NC(=O)[C@@H]1CSSC[C@H](NC(=O)[C@@H](N)CCCCNC(=O)CC[C@H](NC(=O)CCCCCCCCCCCCCCCCC(=O)O)C(=O)O)C(=O)N[C@@H](CC(N)=O)C(=O)N[C@@H]([C@@H](C)O)C(=O)N[C@@H](C)C(=O)N[C@@H]([C@@H](C)O)C(=O)N1)[C@@H](C)O)C(=O)N[C@@H](CC(C)C)C(=O)N1CCC[C@H]1C(=O)N1CCC[C@H]1C(=O)N[C@H](C(=O)N[C@@H](CCC(=O)O)C(=O)N[C@H](C(=O)NCC(=O)N[C@@H](CO)C(=O)N[C@@H](CC(N)=O)C(=O)N[C@H](C(=O)N[C@@H](Cc1ccc(O)cc1)C(N)=O)[C@@H](C)O)C(C)C)[C@@H](C)O [Peptide 44, K(γE-C18diacid)[CNTATC]ATQRLANFLRHSS(Aib)NFGPILPPTEVGSNTY-amide] (H-K([γGlu-C18 diacid])CNTATCATQRLANFLRHSS[Aib]NFGPILPPTEVGSNTY-NH2; disulfide 2-7; N-terminus assumed)	33.5 % vehicle treated intake	39.2 % vehicle treated intake	60.7 % vehicle treated intake
42	126 pM	4.8 pM	CC[C@H](C)[C@H](NC(=O)[C@@H]1CCCN1C(=O)CNC(=O)[C@H](Cc1ccccc1)NC(=O)[C@H](CC(N)=O)NC(=O)C(C)(C)NC(=O)[C@H](CO)NC(=O)[C@H](CO)NC(=O)[C@H](Cc1c[nH]cn1)NC(=O)[C@H](CCCNC(=N)N)NC(=O)[C@H](CC(C)C)NC(=O)[C@H](Cc1ccccc1)NC(=O)[C@H](CC(N)=O)NC(=O)[C@H](C)NC(=O)[C@H](CC(C)C)NC(=O)[C@H](CCCNC(=N)N)NC(=O)[C@H](CCC(N)=O)NC(=O)[C@@H](NC(=O)[C@H](C)NC(=O)[C@@H]1CSSC[C@H](NC(=O)[C@@H](N)CCCCNC(=O)CC[C@H](NC(=O)CCCCCCCCCCCCCCCCC(=O)O)C(=O)O)C(=O)N[C@@H](CC(N)=O)C(=O)N[C@@H]([C@@H](C)O)C(=O)N[C@@H](C)C(=O)N[C@@H]([C@@H](C)O)C(=O)N1)[C@@H](C)O)C(=O)N[C@@H](CC(C)C)C(=O)N1CCC[C@H]1C(=O)N1CCC[C@H]1C(=O)N[C@H](C(=O)N[C@@H](CC(N)=O)C(=O)N[C@H](C(=O)NCC(=O)N[C@@H](CO)C(=O)N[C@@H](CC(N)=O)C(=O)N[C@H](C(=O)N[C@@H](Cc1ccc(O)cc1)C(N)=O)[C@@H](C)O)C(C)C)[C@@H](C)O [Peptide 48, K(γE-C18diacid)[CNTATC]ATQRLANFLRHSS(Aib)NFGPILPPTNVGSNTY-amide] (H-K([γGlu-C18 diacid])CNTATCATQRLANFLRHSS[Aib]NFGPILPPTNVGSNTY-NH2; disulfide 2-7; N-terminus assumed)	27.5 % vehicle treated intake	32.6 % vehicle treated intake	57.1 % vehicle treated intake
